Source: patent US10183946B2, “Triazolo[4,5-D]pyrimidines” (Hoffmann—La Roche Inc., priority 2014, dated 2019)

Columns and labels:
human CB2 receptors = human CB2 receptors (Homo sapiens (Human), UniProt P34972); assay: cAMP assay, CHO cells expressing human CB2 receptors; assay type: cell-based; conditions: functional cAMP assay, read-out: CB2 hcAMP EC50
Method: (§1) CHO cells expressing human CB1 or CB2 receptors are seeded 17-24 hours prior to the experiment 50.000 cells per well in a black 96 well plate with flat clear bottom (Corning Costar #3904) in DMEM (Invitrogen No. 31331), 1×HT supplement, with 10% fetal calf serum and incubated at 5% CO2 and 37° C. in a humidified incubator. The growth medium was exchanged with Krebs Ringer Bicarbonate buffer with 1 mM IBMX and incubated at 30° C. for 30 min. Compounds were added to a final assay volume of 100 μl and incubated for 30 min at 30° C. Using the cAMP-Nano-TRF detection kit the assay (Roche Diagnostics) was stopped by the addition of 50 μl lysis reagent (Tris, NaCl, 1.5% Triton X100, 2.5% NP40, 10% NaN3) and 50 μl detection solutions (20 μM mAb Alexa700-cAMP 1:1, and 48 μM Ruthenium-2-AHA-cAMP) and shaken for 2 h at room temperature. The time-resolved energy transfer is measured by a TRF reader (Evotec Technologies GmbH), equipped with a ND:YAG laser as excitation source. The plate is measured twice with the excitation at 355 nm and at the emission with a delay of 100 ns and a gate of 100 ns, total exposure time 10 s at 730 (bandwidth 30 nm) or 645 nm (bandwidth 75 nm), respectively. The FRET signal is calculated as follows: FRET=T730-Alexa730-P(T645-B645) with P=Ru730-B730/Ru645-B645, where T730 is the test well measured at 730 nM, T645 is the test well measured at 645 nm, B730 and B645 are the buffer controls at 730 nm and 645 nm, respectively. cAMP content is determined from the function of a standard curve spanning from 10 μM to 0.13 nM cAMP.
(§2) EC50 values were determined using Activity Base analysis (ID Business Solution, Limited). The EC50 values for a wide range of cannabinoid agonists generated from this assay were in agreement with the values published in the scientific literature.

human CB1 receptors = human CB1 receptors (Homo sapiens (Human), UniProt P21554); assay: cAMP assay, CHO cells expressing human CB1 receptors; assay type: cell-based; conditions: functional cAMP assay, CHO cells expressing human CB1; read-out: CB1 hcAMP EC50
Chain of human CB1 receptors (P21554 whole entry): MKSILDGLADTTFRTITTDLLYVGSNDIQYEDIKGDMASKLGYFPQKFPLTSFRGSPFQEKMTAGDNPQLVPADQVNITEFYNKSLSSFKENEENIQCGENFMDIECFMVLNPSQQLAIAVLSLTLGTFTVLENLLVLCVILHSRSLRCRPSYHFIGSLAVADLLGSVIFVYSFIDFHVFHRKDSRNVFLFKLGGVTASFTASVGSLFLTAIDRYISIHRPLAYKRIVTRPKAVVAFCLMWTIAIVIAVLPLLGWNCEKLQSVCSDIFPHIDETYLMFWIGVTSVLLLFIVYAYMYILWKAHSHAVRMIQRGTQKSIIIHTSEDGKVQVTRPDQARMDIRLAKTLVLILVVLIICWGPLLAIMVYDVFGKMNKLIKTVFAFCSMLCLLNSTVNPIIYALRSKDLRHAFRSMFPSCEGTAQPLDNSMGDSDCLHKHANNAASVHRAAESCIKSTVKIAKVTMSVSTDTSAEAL
Method: as §1, §2

Chain of human CB2 receptors (P34972 whole entry): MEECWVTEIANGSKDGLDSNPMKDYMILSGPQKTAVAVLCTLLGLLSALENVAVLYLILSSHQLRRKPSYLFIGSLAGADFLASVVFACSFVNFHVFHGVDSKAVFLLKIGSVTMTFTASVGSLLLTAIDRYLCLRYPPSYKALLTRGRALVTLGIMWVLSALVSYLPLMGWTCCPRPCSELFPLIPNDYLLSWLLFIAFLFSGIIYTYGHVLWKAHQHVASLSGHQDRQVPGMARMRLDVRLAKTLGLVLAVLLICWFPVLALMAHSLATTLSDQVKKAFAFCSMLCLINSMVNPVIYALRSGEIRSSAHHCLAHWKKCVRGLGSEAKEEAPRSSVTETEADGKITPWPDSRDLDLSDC

Structure (SMILES) | EC50 (human CB2 receptors) [nM] | EC50 (human CB1 receptors) [nM]
Cc1ccc(-c2nc(C(C)(C)C)nc3c2nnn3Cc2ccccc2Cl)cc1 [Example 1, 5-tert-butyl-3-[(2-chlorophenyl)methyl]-7-(4-methylphenyl)triazolo[4,5-d]pyrimidine] | 206 | > 10000
CC(C)(C)c1nc(-c2ccc(F)cc2)c2nnn(Cc3ccccc3Cl)c2n1 [Example 2, 5-tert-butyl-3-[(2-chlorophenyl)methyl]-7-(4-fluorophenyl)triazolo[4,5-d]pyrimidine] | 28.5 | > 10000
COc1ccc(-c2nc(C(C)(C)C)nc3c2nnn3Cc2ccccc2Cl)cc1 [Example 3, 5-tert-butyl-3-[(2-chlorophenyl)methyl]-7-(4-methoxyphenyl)triazolo[4,5-d]pyrimidine] | 239 | > 10000
CC(C)(C)c1nc(-c2ccccc2F)c2nnn(Cc3ccccc3Cl)c2n1 [Example 4, 5-tert-butyl-3-[(2-chlorophenyl)methyl]-7-(2-fluorophenyl)triazolo[4,5-d]pyrimidine] | 65.2 | > 10000
CC(C)(C)c1nc(-c2ccc(Cl)cc2F)c2nnn(Cc3ccccc3Cl)c2n1 [Example 5, 5-tert-butyl-7-(4-chloro-2-fluorophenyl)-3-[(2-chlorophenyl)methyl]triazolo[4,5-d]pyrimidine] | 88.2 | > 10000
CC(C)(C)c1nc(-c2ccc(F)nc2)c2nnn(Cc3ccccc3Cl)c2n1 [Example 6, 5-tert-butyl-3-[(2-chlorophenyl)methyl]-7-(6-fluoropyridin-3-yl)triazolo[4,5-d]pyrimidine] | 2.7 | > 10000
Cc1ccc(-c2nc(C(C)(C)C)nc3c2nnn3Cc2ccccc2Cl)nc1 [Example 7, 5-tert-butyl-3-[(2-chlorophenyl)methyl]-7-(5-methylpyridin-2-yl)triazolo[4,5-d]pyrimidine] | 488 | > 10000
Cn1cc(-c2nc(C(C)(C)C)nc3c2nnn3Cc2ccccc2Cl)cn1 [Example 8, 5-tert-butyl-3-[(2-chlorophenyl)methyl]-7-(1-methylpyrazol-4-yl)triazolo[4,5-d]pyrimidine] | 17.4 | > 10000
Cn1nccc1-c1nc(C(C)(C)C)nc2c1nnn2Cc1ccccc1Cl [Example 9, 5-tert-butyl-3-[(2-chlorophenyl)methyl]-7-(2-methylpyrazol-3-yl)triazolo[4,5-d]pyrimidine] | 44.3 | > 10000
CC(C)(C)c1nc(-c2ccccc2)c2nnn(Cc3ccccc3Cl)c2n1 [Example 10, 5-tert-butyl-3-[(2-chlorophenyl)methyl]-7-phenyltriazolo[4,5-d]pyrimidine] | 80.2 | > 10000
Cc1oncc1-c1nc(C(C)(C)C)nc2c1nnn2Cc1ccccc1Cl [Example 11, 4-[5-tert-butyl-3-[(2-chlorophenyl)methyl]triazolo[4,5-d]pyrimidin-7-yl]-5-methyl-1,2-oxazole] | 76.5 | > 10000
Cn1nccc1-c1nc(C(C)(C)C)nc2c1nnn2Cc1ccccc1S(C)(=O)=O [Example 12, 5-tert-butyl-7-(2-methylpyrazol-3-yl)-3-[(2-methylsulfonylphenyl)methyl]triazolo[4,5-d]pyrimidine] | 3 | > 10000
Cn1nccc1-c1nc(C(C)(C)C)nc2c1nnn2Cc1nnnn1C [Example 13, 5-tert-butyl-7-(2-methylpyrazol-3-yl)-3-[(1-methyltetrazol-5-yl)methyl]triazolo[4,5-d]pyrimidine] | 33.3 | > 10000
Cc1nonc1Cn1nnc2c(-c3ccnn3C)nc(C(C)(C)C)nc21 [Example 14, 3-[[5-tert-butyl-7-(2-methylpyrazol-3-yl)triazolo[4,5-d]pyrimidin-3-yl]methyl]-4-methyl-1,2,5-oxadiazole] | 1.3 | > 10000
Cc1nnc(Cn2nnc3c(-c4ccnn4C)nc(C(C)(C)C)nc32)o1 [Example 15, 2-[[5-tert-butyl-7-(2-methylpyrazol-3-yl)triazolo[4,5-d]pyrimidin-3-yl]methyl]-5-methyl-1,3,4-oxadiazole] | 317 | > 10000
